Results published in article PMC5785446 (Alcoholism, clinical and experimental research, 2018).

Tests used:
[1] = biological target: human MOP receptor (Homo sapiens, UniProt P35372); assay type: biochemical
[2] = tested on: wild-type mice; settings: mouse, in vivo
[3] = tested on: C57BL/6J mice; settings: mouse, in vivo

human MOP receptor, sequence (P35372 whole entry): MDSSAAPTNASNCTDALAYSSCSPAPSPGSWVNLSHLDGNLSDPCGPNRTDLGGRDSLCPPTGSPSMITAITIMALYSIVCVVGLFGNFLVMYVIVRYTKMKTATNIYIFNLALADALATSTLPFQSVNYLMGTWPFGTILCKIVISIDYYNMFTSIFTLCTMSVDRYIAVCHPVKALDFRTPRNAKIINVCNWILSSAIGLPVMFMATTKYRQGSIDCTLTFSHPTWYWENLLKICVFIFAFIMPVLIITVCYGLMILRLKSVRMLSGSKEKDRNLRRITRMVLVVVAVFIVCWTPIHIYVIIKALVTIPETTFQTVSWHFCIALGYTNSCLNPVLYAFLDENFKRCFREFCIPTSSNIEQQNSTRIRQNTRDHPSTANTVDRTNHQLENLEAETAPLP

SMILES | [35S]GTPγS MOP % Stim [1] | motor sedative effect on conditioning days [2] | effect on ethanol-induced CPP [3]
C[C@@H](NC(=O)[C@@H](N)Cc1ccc(O)cc1)C(=O)NCC(=O)N(C)[C@@H](Cc1ccccc1)C(=O)NCCO [DAMGO] | 100% | – | –
CCCC(C)C1(CC)C(=O)NC(=O)NC1=O (stereo not drawn) [pentobarbital] | – | robust motor sedative effect | did not alter the rewarding action of ethanol
